# Assay results as given in ChEMBL document CHEMBL5376015, “Kinase inhibitor macrocycles: a perspective on limiting conformational flexibility when targeting the kinome with small molecules” (RSC Med Chem, 2024).
# Assays:
# [1] = biological target: Tyrosine-protein kinase JAK1 (Homo sapiens, UniProt P23458)
# Description: Inhibition of human recombinant JAK1
# BaF3 [2] = test: Growth inhibition of mouse BaF3 cells harboring JAK2 V617F mutant assessed as reduction in cell viability incubated for 72 hrs by MTT assay; assay type: functional
# [3] = biological target: Cyclin-dependent kinase 2 (Homo sapiens, UniProt P24941); test: Inhibition of human recombinant CDK2 by Kinomescan method
# Cytochrome P450 3A4 [4] = biological target: T1, Cytochrome P450 3A4 (Homo sapiens, UniProt P08684)
# Description: Inhibition of CYP3A4 in human liver microsomes using testosterone as substrate by LC-MS/MS analysis
# [5] = biological target: Tyrosine-protein kinase JAK2 (Homo sapiens, UniProt O60674)
# Description: Inhibition of human recombinant JAK2
# [6] = biological target: T2, Tyrosine-protein kinase JAK3 (Homo sapiens, UniProt P52333); test: Inhibition of human recombinant JAK3
# T2 sequence (P52333 whole entry): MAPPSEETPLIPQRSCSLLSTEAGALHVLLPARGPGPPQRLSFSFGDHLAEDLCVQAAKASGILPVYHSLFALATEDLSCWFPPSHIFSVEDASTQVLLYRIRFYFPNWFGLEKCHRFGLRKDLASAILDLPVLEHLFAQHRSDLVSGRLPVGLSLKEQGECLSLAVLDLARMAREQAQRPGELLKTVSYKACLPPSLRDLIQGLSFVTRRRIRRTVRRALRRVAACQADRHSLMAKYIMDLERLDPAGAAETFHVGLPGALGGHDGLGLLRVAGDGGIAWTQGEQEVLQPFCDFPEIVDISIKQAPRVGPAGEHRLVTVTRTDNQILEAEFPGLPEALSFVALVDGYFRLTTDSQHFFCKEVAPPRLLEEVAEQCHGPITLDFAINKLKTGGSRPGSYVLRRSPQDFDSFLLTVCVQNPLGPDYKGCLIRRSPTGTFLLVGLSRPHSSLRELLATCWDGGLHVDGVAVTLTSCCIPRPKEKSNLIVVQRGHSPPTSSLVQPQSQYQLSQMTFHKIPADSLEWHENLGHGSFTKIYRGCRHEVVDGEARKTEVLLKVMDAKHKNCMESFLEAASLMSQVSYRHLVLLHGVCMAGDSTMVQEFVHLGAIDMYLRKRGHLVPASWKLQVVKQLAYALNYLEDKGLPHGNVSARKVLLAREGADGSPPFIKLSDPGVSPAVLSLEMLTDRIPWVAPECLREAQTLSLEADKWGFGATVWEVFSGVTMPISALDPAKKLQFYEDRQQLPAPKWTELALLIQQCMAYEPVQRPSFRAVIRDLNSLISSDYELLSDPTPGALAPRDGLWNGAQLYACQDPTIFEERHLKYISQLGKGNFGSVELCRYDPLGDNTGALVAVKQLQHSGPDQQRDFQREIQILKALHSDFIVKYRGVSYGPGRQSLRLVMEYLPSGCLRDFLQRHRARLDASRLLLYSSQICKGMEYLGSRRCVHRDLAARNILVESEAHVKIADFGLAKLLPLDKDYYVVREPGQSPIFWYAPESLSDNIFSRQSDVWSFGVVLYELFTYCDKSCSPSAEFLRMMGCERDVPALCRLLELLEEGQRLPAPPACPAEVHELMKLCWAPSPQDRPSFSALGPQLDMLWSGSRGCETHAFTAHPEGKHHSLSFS
# in vitro [7] = conditions: PAMPA, pH 7.4
# Description: Permeability of compound at pH 7.4 by PAMPA assay
# Cytochrome P450 2D6 [8] = biological target: T3, Cytochrome P450 2D6 (Homo sapiens, UniProt P10635)
# Description: Inhibition of CYP2D6 in human liver microsomes using dextromethorphan as substrate by LC-MS/MS analysis
# [9] = biological target: T4, Receptor-type tyrosine-protein kinase FLT3 (Homo sapiens, UniProt P36888)
# T4 sequence (P36888 whole entry): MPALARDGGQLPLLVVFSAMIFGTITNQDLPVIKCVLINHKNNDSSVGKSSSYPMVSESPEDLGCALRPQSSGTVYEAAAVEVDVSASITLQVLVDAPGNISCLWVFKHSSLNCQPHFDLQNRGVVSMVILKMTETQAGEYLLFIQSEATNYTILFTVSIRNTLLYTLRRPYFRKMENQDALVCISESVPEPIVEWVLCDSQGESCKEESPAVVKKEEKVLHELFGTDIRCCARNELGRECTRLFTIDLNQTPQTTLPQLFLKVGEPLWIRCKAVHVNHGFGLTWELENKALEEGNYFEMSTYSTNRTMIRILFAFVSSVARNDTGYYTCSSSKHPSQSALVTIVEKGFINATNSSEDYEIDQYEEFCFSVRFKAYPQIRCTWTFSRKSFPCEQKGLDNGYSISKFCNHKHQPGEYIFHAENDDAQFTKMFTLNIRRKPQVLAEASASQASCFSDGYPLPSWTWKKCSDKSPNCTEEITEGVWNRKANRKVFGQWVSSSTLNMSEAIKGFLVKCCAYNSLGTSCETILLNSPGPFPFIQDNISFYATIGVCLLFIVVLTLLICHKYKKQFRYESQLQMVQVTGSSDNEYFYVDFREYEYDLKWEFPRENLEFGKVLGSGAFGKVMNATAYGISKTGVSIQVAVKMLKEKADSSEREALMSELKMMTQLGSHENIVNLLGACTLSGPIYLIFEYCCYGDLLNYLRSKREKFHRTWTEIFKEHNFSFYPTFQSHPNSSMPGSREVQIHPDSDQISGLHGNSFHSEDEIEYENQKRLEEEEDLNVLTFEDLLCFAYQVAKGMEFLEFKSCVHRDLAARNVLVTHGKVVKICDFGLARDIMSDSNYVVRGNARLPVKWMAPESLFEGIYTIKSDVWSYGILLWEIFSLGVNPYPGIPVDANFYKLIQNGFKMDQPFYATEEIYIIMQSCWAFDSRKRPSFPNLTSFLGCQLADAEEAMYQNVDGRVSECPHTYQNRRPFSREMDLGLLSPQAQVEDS
# Description: Inhibition of recombinant FLT3 in human MV4-11 cells assessed as reduction in ERK phosphorylation by Western blotting analysis
# physchem [10] = conditions: PBS, pH 7
# Description: Aqueous solubility of the compound in PBS at pH 7
# [11] = biological target: Non-receptor tyrosine-protein kinase TYK2 (Homo sapiens, UniProt P29597); test: Inhibition of human recombinant TYK2
# in vitro [12] = conditions: human, human liver microsomes
# Description: Clearance in human liver microsomes
# NIH3T3 [13] = test: Antiproliferative activity against mouse NIH3T3 cells harbouring ETV6-TRKC G696A mutant incubated for 3 days by CCK8 method; assay type: functional; conditions: NIH3T3, 72 h, time 3 day
# NIH3T3 [14] = test: Antiproliferative activity against mouse NIH3T3 cells harbouring TRKA V573M mutant assessed as cell growth inhibition incubated for 3 days by CCK8 method; assay type: functional; conditions: NIH3T3, 72 h, time 3 day
# NIH3T3 [15] = test: Antiproliferative activity against mouse NIH3T3 cells expressing TRKA G667S mutant assessed as inhibition of cell growth measured after 72 hrs by CCK-8 assay; assay type: functional
# NIH3T3 [16] = test: Antiproliferative activity against mouse NIH3T3 cells expressing TRKC G623R mutant assessed as inhibition of cell growth measured after 72 hrs by CCK-8 assay; assay type: functional
# NIH3T3 [17] = test: Antiproliferative activity against mouse NIH3T3 cells harbouring TRKC G595R mutant assessed as cell growth inhibition incubated for 3 days by CCK8 method; assay type: functional; conditions: NIH3T3, 72 h, time 3 day
# NIH3T3 [18] = test: Antiproliferative activity against mouse NIH3T3 cells expressing TRKA F589L mutant assessed as inhibition of cell growth measured after 72 hrs by CCK-8 assay; assay type: functional
# in vitro [19] = conditions: mouse, mouse liver microsomes
# Description: Half life in mouse liver microsomes
# [20] = Plasma protein binding in mouse; assay type: ADME, cell-free; conditions: read-out: PPB (converted)
# [21] = Kinetic solubility of compound at pH 7; assay type: physicochemical; conditions: buffer, read-out: Kinetic_solubility
# in vitro [22] = conditions: human, human liver microsomes; remark: listed apart in the source
# Description: Half life in human liver microsome
# NIH3T3 [23] = test: cells; conditions: Mus musculus
# Description: Antiproliferative activity against mouse NIH3T3 cells transfected with wild type TRKA assessed as cell growth inhibition
# BaF3 [24] = test: cells; conditions: Mus musculus, BaF3, 72 h
# Description: Antiproliferative activity against mouse BaF3 cells harbouring ETV6-TRKC G623E mutant incubated for 3 days by CCK8 method
# BaF3 [25] = test: cells; conditions: Mus musculus, BaF3, 72 h; remark: listed apart in the source
# BaF3 [26] = test: cells; conditions: Mus musculus, BaF3, 72 h; remark: listed apart in the source
# Description: Antiproliferative activity against mouse BaF3 cells harbouring wild type TRKC assessed as cell growth inhibition incubated for 3 days by CCK8 method
# BaF3 [27] = test: cells; conditions: Mus musculus, BaF3, 72 h; remark: listed apart in the source
# Description: Antiproliferative activity against mouse BaF3 cells harbouring TRKA G595R mutant assessed as cell growth inhibition incubated for 3 days by CCK8 method
# NIH3T3 [28] = test: Antiproliferative activity against mouse NIH3T3 cells expressing wild type TRKC […] assessed as inhibition of cell growth measured after 72 hrs by CCK-8 assay; assay type: functional
# physchem [29] = conditions: octanol/water
# Description: Lipophilicity, logD of the compound
# Cytochrome P450 3A4 [30] = biological target: T1, Cytochrome P450 3A4; remark: listed apart in the source
# Description: Inhibition of CYP3A4 (unknown origin)
# [31] = biological target: ALK tyrosine kinase receptor (Homo sapiens, UniProt Q9UM73)
# Description: Binding affinity to ALK (unknown origin) assessed as inhibition of constant
# [32] = biological target: ALK tyrosine kinase receptor (Homo sapiens, UniProt Q9UM73, L1196M)
# Description: Binding affinity to ALK L1196M mutant (unknown origin) assessed as inhibition constant
# Cytochrome P450 2D6 [33] = biological target: T3, Cytochrome P450 2D6; remark: listed apart in the source
# Description: Inhibition of CYP2D6 (unknown origin)
# Sequence of Tyrosine-protein kinase JAK1 (P23458 whole entry): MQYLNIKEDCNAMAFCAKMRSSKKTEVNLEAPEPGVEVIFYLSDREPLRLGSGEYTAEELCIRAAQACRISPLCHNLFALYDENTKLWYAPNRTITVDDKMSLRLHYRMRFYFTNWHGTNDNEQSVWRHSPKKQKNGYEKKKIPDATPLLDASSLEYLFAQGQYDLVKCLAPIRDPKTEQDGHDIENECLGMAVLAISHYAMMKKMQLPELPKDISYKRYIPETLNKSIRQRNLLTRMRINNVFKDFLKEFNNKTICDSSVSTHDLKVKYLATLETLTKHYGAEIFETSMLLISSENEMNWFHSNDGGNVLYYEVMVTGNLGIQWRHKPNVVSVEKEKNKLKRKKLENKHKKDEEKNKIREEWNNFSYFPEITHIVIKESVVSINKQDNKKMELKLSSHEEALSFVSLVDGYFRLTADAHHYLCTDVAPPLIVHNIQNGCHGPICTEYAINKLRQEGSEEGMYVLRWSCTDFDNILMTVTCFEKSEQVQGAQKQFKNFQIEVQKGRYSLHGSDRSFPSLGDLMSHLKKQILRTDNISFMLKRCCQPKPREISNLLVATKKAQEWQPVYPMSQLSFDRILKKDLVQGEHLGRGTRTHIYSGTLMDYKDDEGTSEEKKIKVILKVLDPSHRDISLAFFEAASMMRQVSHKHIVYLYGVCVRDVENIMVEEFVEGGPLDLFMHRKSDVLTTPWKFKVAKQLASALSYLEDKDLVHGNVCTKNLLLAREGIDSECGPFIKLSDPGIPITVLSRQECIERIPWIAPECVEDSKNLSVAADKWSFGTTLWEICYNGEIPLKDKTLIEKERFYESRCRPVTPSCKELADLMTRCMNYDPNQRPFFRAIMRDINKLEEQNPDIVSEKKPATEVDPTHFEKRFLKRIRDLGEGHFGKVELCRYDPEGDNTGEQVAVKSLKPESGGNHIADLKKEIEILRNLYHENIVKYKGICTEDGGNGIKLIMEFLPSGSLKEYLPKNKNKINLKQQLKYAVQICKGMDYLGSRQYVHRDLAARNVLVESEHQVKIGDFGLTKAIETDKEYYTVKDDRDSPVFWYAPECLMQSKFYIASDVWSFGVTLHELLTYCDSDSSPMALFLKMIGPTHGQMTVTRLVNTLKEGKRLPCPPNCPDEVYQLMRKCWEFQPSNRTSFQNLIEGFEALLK
# T1 sequence (P08684 whole entry): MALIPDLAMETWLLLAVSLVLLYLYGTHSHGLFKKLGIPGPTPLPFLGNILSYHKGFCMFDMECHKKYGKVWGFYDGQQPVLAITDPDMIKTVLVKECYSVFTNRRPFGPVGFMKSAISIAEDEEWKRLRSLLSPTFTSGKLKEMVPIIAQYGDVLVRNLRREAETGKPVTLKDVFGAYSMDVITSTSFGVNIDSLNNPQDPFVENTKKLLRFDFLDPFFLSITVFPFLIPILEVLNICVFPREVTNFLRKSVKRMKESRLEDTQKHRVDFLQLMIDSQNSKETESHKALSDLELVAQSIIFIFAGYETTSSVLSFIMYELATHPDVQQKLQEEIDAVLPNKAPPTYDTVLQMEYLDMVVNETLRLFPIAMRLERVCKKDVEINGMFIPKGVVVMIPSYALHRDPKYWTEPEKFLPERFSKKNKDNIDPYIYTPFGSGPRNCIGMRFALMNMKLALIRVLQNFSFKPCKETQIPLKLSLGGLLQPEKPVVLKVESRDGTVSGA
# Sequence of Tyrosine-protein kinase JAK2 (O60674 whole entry): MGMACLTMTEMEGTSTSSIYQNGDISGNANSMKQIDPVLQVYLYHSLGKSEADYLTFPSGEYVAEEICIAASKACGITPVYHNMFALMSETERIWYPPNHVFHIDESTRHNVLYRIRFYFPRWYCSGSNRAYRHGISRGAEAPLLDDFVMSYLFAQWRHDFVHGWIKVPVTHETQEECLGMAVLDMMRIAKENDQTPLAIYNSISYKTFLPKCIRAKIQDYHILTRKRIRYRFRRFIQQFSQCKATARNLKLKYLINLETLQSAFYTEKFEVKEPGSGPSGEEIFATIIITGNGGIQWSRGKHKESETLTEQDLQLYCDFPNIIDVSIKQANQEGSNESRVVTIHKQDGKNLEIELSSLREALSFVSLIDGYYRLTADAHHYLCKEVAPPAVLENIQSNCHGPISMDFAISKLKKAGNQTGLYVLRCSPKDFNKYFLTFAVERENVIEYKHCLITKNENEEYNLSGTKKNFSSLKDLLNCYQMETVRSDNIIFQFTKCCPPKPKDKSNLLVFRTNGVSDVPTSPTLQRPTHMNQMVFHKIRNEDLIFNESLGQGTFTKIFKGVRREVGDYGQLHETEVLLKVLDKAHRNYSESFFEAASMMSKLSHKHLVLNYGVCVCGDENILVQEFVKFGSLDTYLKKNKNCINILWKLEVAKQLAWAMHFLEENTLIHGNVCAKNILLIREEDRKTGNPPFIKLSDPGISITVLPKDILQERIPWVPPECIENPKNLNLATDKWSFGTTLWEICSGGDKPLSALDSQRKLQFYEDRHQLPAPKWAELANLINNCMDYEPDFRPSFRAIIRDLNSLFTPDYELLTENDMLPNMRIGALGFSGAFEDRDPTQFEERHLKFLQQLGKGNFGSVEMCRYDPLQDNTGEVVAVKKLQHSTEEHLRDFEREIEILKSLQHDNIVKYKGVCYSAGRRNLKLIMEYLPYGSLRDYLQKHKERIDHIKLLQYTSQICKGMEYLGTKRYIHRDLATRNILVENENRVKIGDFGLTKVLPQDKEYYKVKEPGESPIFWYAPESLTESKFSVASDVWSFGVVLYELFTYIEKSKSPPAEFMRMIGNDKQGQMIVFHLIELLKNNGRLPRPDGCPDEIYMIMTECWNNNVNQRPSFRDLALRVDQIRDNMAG
# T3 sequence (P10635 whole entry): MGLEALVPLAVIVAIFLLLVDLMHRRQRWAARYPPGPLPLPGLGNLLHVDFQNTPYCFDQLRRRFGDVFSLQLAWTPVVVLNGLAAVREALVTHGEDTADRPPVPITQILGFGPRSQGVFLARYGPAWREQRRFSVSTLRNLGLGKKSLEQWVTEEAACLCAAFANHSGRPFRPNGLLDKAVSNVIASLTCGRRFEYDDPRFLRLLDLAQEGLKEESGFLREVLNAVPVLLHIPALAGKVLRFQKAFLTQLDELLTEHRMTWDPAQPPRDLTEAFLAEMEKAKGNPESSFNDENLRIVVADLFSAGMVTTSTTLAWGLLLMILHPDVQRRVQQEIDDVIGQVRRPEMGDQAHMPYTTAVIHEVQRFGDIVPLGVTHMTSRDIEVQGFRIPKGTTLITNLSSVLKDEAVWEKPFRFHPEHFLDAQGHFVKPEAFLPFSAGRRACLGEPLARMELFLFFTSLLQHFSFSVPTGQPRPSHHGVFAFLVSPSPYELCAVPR
# Sequence of Non-receptor tyrosine-protein kinase TYK2 (P29597 whole entry): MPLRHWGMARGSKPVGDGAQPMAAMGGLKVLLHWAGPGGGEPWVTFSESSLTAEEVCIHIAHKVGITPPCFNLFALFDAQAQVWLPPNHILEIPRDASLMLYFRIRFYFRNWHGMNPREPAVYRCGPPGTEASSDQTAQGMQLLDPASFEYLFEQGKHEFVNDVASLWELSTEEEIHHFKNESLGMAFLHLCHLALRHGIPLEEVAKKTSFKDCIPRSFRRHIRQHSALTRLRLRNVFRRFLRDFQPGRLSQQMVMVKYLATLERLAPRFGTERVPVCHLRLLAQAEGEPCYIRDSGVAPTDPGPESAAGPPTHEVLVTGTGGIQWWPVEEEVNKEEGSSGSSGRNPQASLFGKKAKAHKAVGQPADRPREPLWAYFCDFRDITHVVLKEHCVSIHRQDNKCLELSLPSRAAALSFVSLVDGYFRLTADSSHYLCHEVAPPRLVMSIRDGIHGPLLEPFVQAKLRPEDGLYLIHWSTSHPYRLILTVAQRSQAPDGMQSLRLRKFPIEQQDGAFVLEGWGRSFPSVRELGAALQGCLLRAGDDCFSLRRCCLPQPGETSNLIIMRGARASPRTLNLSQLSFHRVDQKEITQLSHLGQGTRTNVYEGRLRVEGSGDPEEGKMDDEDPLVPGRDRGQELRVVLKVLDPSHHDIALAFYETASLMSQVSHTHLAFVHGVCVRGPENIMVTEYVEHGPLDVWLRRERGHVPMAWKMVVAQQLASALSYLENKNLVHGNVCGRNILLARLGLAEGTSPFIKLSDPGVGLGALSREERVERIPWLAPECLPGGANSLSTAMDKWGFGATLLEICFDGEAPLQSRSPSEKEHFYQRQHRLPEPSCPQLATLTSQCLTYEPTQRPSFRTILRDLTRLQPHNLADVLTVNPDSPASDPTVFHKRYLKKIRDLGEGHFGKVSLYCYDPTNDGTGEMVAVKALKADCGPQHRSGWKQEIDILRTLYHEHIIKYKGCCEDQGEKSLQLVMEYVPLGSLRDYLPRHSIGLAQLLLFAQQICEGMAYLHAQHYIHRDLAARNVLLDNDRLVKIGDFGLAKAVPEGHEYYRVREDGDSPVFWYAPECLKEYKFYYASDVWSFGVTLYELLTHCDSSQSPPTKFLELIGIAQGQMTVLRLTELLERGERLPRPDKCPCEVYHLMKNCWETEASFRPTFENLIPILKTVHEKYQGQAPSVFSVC
structure (smiles),measurement,setting,value
COc1ccc2cc1COC/C=C/COCc1cc(ccc1OCCN1CCCC1)Nc1nccc-2n1,IC50,[1],> 10000 nM
same,GI50,BaF3 [2],100 nM
same,IC50,[3],> 10000 nM
same,IC50,Cytochrome P450 3A4 [4],> 10000 nM
same,IC50,[5],19 nM
same,IC50,[6],890 nM
same,Papp,in vitro [7],10.1 ×10⁻⁶ cm/s
same,IC50,Cytochrome P450 2D6 [8],10000 nM
same,IC50,[9],92 nM
same,solubility,physchem [10],60.8 µg/mL
same,IC50,[11],180 nM
COc1ccc(F)cc1[C@@H](C)Oc1cc(-c2cnnn2C)cnc1N,microsomal CLint,in vitro [12],25 µL/min/mg
COc1ccc2cc1COC/C=C/COCc1cccc(c1)-c1ccnc(n1)N2,IC50,[1],1900 nM
same,IC50,[3],860 nM
same,IC50,[6],1200 nM
same,IC50,[11],210 nM
OCCN1CCN(c2ccc3cc2COC/C=C/COCc2cccc(c2)-c2ccnc(n2)N3)CC1,IC50,[1],3100 nM
same,IC50,[3],3700 nM
same,IC50,[5],84 nM
same,IC50,[6],2500 nM
same,IC50,[9],70 nM
same,IC50,[11],160 nM
CN(C)CCN(C)c1ccc2cc1COC/C=C/COCc1cccc(c1)-c1ccnc(n1)N2,IC50,[1],3600 nM
same,IC50,[3],88 nM
same,IC50,[5],77 nM
same,IC50,[9],31 nM
same,IC50,[11],71 nM
C[C@@H]1CCc2ncc(F)cc2[C@H]2CCCN2c2ccn3ncc(c3n2)C(=O)N1 [SELITRECTINIB],GI50,NIH3T3 [13],17.5 nM
same,GI50,NIH3T3 [14],29 nM
same,GI50,NIH3T3 [15],25 nM
same,GI50,NIH3T3 [16],45.5 nM
same,GI50,NIH3T3 [17],7 nM
same,GI50,NIH3T3 [18],9 nM
CNC(=O)c1ccc(F)cc1[C@@H](C)Oc1nc(-c2cccnc2OC)cnc1N,microsomal CLint,in vitro [12],76 µL/min/mg
C1=C2COC/C=C/COCc3cc(ccc3OCCN3CCCC3)Nc3nccc(n3)C(=C1)O2 [CT-1578],half-life,in vitro [19],18 min
same,fraction unbound,[20],0.127
same,solubility kinetic,[21],> 250 µg/mL
same,half-life,in vitro [22],> 60 min
O=C(Nc1cnn2ccc(N3CCC[C@@H]3c3cc(F)ccc3F)nc12)N1CC[C@H](O)C1 [LAROTRECTINIB],GI50,NIH3T3 [13],172 nM
same,GI50,NIH3T3 [14],1020 nM
same,GI50,NIH3T3 [23],5 nM
same,GI50,BaF3 [24],742 nM
same,GI50,BaF3 [25],3290 nM
same,GI50,BaF3 [26],10.2 nM
same,GI50,NIH3T3 [15],70 nM
same,GI50,NIH3T3 [16],> 10000 nM
same,GI50,BaF3 [27],1020 nM
same,GI50,NIH3T3 [28],18.8 nM
CNC(=O)c1ccc(F)cc1[C@@H](C)Oc1cc(-c2cn(C)nc2C)cnc1N,microsomal CLint,in vitro [12],28 µL/min/mg
same,logD,physchem [29],3.7
Cc1nn(C)c2c1-c1cnc(N)c(c1)O[C@H](C)c1cc(F)ccc1C(=O)N(C)C2,microsomal CLint,in vitro [12],8.6 µL/min/mg
CN1C/C=C/CCOc2cccc(c2)-c2ccnc(n2)Nc2cccc(c2)C1 [ZOTIRACICLIB],half-life,in vitro [19],12 min
same,fraction unbound,[20],0.006
same,solubility kinetic,[21],71.8 µg/mL
same,IC50,Cytochrome P450 3A4 [30],> 25000 nM
C[C@@H]1Oc2cc(cnc2N)-c2c(C#N)nn(C)c2CCCOc2ccc(F)cc21,Ki,[31],< 0.1 nM
same,Ki,[32],0.62 nM
same,logD,physchem [29],3.8
Cc1cnc2nc1-c1cccc(c1)COC/C=C/COCc1cc(ccc1OCCN1CCCC1)N2,IC50,[1],1000 nM
same,GI50,BaF3 [2],180 nM
same,IC50,[5],7 nM
same,IC50,[6],89 nM
same,IC50,[9],19 nM
same,IC50,[11],57 nM
C1=N/C2=N/c3ccc(OCCN4CCCC4)c(c3)COC/C=C/COCc3cccc(c3)C(=C1)N2 [PACRITINIB],half-life,in vitro [19],22 min
same,fraction unbound,[20],0.006
same,GI50,BaF3 [2],160 nM
same,solubility kinetic,[21],> 150 µg/mL
same,IC50,[3],> 3900 nM
same,IC50,Cytochrome P450 3A4 [4],> 5000 nM
same,IC50,Cytochrome P450 2D6 [33],> 5000 nM
same,IC50,Cytochrome P450 2D6 [8],5000 nM
same,IC50,Cytochrome P450 3A4 [30],> 5000 nM
same,solubility,physchem [10],> 150 µg/mL
same,half-life,in vitro [22],> 60 min
C[C@H]1Oc2cc(cnc2N)-c2c(nn(C)c2C#N)CN(C)C(=O)c2ccc(F)cc21 [LORLATINIB],microsomal CLint,in vitro [12],< 8 µL/min/mg
